Test results from ChEMBL document CHEMBL1158896, “Isolation and structure of the cytotoxic cycloheptapeptide phakellistatin 13” (2003).
Activity calls are given as the source filed them. The calls are words filed in the database; no cut-off is given here. Where a SMILES comes first, the peptide text is derived from it.

Tests used:
HL-60 = test: Cytotoxicity against human HL60 cells; assay type: functional, cell-based
[1] = Cytotoxicity against human Bel7404 cells; assay type: functional; details: BEL-7404, read-out: ED50 (the source's name)

Row | SMILES | Activity (HL-60) | EC50 [1]
1 | CC(C)C[C@@H]1NC(=O)[C@H]([C@@H](C)O)NC(=O)[C@@H]2CCCN2C(=O)CNC(=O)[C@H](Cc2ccccc2)NC(=O)[C@@H]2CCCN2C(=O)[C@H](Cc2c[nH]c3ccccc23)NC1=O (cyclo(FGPTLWP)) | inactive | –
2 | CC(C)C[C@@H]1NC(=O)[C@H](Cc2c[nH]c3ccccc23)NC(=O)[C@@H]2CCCN2C(=O)[C@H](Cc2ccccc2)NC(=O)CNC(=O)[C@@H]2CCCN2C(=O)[C@H]([C@@H](C)O)NC1=O [PHAKELLISTATIN 13] (cyclo(FPWLTPG)) | – | < 0.01 µg/mL
